Data set [1] can be described thus: osmotic pressure of the drug. The class given is physicochemical.
A short description of data set [2]: solubility of the pharmaceutical agent in water. The data set is classed as physicochemical. The method, then:
As defined herein, the solubility of a pharmaceutical agent is determined by adding the pharmaceutical agent to stirred or agitated de-ionized water maintained in a constant temperature bath at a temperature of 37° C. until no more pharmaceutical agent dissolves. The resulting solution saturated with the pharmaceutical agent is then filtered, typically under pressure through a 0.8-micron Millipore filter, and the concentration of the pharmaceutical agent in the solution is measured by any appropriate analytical method including gravimetric, ultraviolet spectrophometry, chromatography, and the like. The solubility of the pharmaceutical agent is measured at saturated concentration.

These results are taken from US20050260264A1, “Dosage form for delivery of multiple drug forms” (priority 2004, published 2005).

Counter-ions that a name gives are not always drawn. Like-named read-outs stand apart in the source and are kept apart here.

In the case of `CNC(=C[N+](=O)[O-])NCCSCc1ccc(CN(C)C)o1.Cl` [Ranitidine HCl, ranitidine hydrochloride], the “osmotic pressure of the drug” value in data set [1] was determined as 95 atmospheres.

In the case of `CCC(=O)O[C@](Cc1ccccc1)(c1ccccc1)[C@H](C)CN(C)C` [propoxyphene base], the “solubility in water (in words)” value in data set [2] was “only slightly soluble”.

In the case of `CN1CCN(CCCN2c3ccccc3Sc3ccc(Cl)cc32)CC1` [prochlorperazine edisilate], the “solubility in water (aqueous solubility)” value in data set [2] was “about 500 mg per milliliter”.

Regarding `CN1CCN(CCCN2c3ccccc3Sc3ccc(Cl)cc32)CC1` [prochlorperazine base], the “solubility in water (aqueous solubility)” value in data set [2] lay within 0.1 to 1 mg per milliliter.

For `CCC(=O)O[C@](Cc1ccccc1)(c1ccccc1)[C@H](C)CN(C)C` [propoxyphene hydrochloride], the “solubility in water (in words)” value in data set [2] (hydrochloride) is reported as “freely soluble”.
